Data: patent publication US4298745A, “Hydantoin derivatives” (Beecham Group Limited, priority 1978, dated 1981)
Read-outs that look alike come from different tables or passages of the source.

Columns and labels:
[1] = tested on: 5-hydroxytryptamine induced bronchoconstriction; assay: inhibition of 5-hydroxytryptamine induced bronchoconstriction in the anaesthetised, artificially respired guinea pig (Konzett-Rossler preparation); assay type: in vivo; conditions: for ED50: Cavia porcellus, iv
Protocol: 1. The compounds were examined for their ability to inhibit 5-hydroxytryptamine induced bronchoconstriction in the anaesthetised, artificially respired guinea pig (Konzett-Rossler preparation) The compounds were administered intravenously.
The test for bronchodilator activity used in `Bronchodilator activity` method 1 above was used with three test animals for the comparison testing of Compound 5 against the compound 5-(6-carboxyhexyl)-1-(3-hydroxy-4,4-dimethyloctyl)hydantoin (A) highlighted in German Offenlegungsschrift No. 2724948 for its anti-bronchoconstriction activity.

[2] = tested on: bronchoconstriction induced by a histamine aerosol; assay: protection of conscious guinea pigs against bronchoconstriction induced by a histamine aerosol (Herxheimer test); assay type: in vivo, guinea pig; conditions: Table B, compound by aerosol
Description: 2. The compounds were also examined for their ability to protect conscious guinea pigs against bronchoconstriction induced by a histamine aerosol (Herxheimer test). In these experiments the compounds were adminstered by aerosol.

[3] = tested on: collagen induced platelet aggregation in human platelet rich plasma; assay: inhibition of platelet aggregation induced in vitro by collagen in human platelet rich plasma; assay type: cell-based; conditions: Table C, read-out: IC50 against collagen induced aggregation
Description: The compounds were examined for their ability to inhibit platelet aggregation induced in vitro by collagen in human platelet rich plasma.

[4] = tested on: indomethacin induced gastric damage; assay: anti-ulcer activity: inhibition of indomethacin induced gastric damage in the rat; assay type: in vivo; conditions: 100 mg/kg orally
Protocol: Anti-ulcer activity was assessed by the inhibition of indomethacin induced gastric damage in the rat according to the method of Eleghe (1974) Israeli J. Med. Sci. IO, 1451. Rats were starved overnight, given 15 mg/kg indomethacin subcutaneously and sacrificed 4 hours later. Stomachs were reflated with n.saline, cut along the greater curvature pinned out and scored for gastric damage by the following system.
Score 1-3--according to degree of erythema and slight haemorrhage.
Score 4-6--according to degree of mucosal erosion.
Score 7-9--according to depth of gastric damage.
Groups of 7 rats were used for each treatment and the test compound or vehicle were administered 30 minutes prior to giving the indomethacin. Dose of test compound was 100 mg/kg orally and control groups receiving vehicle only were set up simultaneously. Mean values for each treatment were obtained using the above scoring system and the Mann Witney test applied for significance of difference between the values obtained with the treatments.

[5] = tested on: arrhythmia in electrostimulation of the right ventricle; assay: anti-arrhythmic activity: increase of the voltage required to produce arrhythmia in electrostimulation of the right ventricle; assay type: in vivo, guinea pig; conditions: Table D; anaesthetised guinea pigs, 32.0 mg/kg I.d.; p<0.5 (so in the source)
Description: Compound 5 was examined for its ability to increase the voltage required to produce arrhythmia in electrostimulation of the right ventricle in anaesthatised guinea pigs.

[6] = Table A, anaesthetised guinea pig, i.v., read-out: ED50 against 5-hydroxytryptamine induced bronchoconstriction
[7] = Table E, comparison testing, three test animals, guinea pig, read-out: ED50 (mean)

IC50 [3] | Structure (SMILES) | ED50 [1, 6] | Activity, Aerosol administration (Herxheimer test) [2] | Mean Score ± S.E. of mean (gastric damage) ([4]; 30 minutes before 15 mg/kg indomethacin s.c., score 1-9, vehicle control 4.14±0.59, p<0.01) | anti-ulcer activity (in words) ([4]; compared with vehicle only treatment) | ED50 [1, 7] | bronchodilator potency of compound 5 relative to Compound A ([1]; comparison testing, Table E) | % increase of voltage ± SEM [5]
28 µM | CCCCC(C)C(C)(O)CCN1C(=O)N(C)C(=O)C1CC=CCCCC(=O)O (stereo not drawn) [Compound 4, 1-(3'-hydroxy-3'-methyl-4'-methyl-n-octyl)-3-methyl-5(6"-carboxy-n-hex-2"- enyl)hydantoin] | 0.6 µg/kg | 0.5 µg/mL | 0.43±0.20 | reduced the mean ulcer score and therefore has significant anti-ulcer activity |  |  | 
22 µM | CCCCCCC(C)(O)CCN1C(=O)N(C)C(=O)C1CC=CCCCC(=O)O (stereo not drawn) [Compound 5] | 1.3 µg/kg | 1 µg/mL |  |  | 1.2 µg/kg | at least an order of magnitude more potent | 43.0 ± 7.0%
 | CCCCC(C)(C)C(O)CCN1C(=O)NC(=O)C1CCCCCCC(=O)O (stereo not drawn) [Compound A, 5-(6-carboxyhexyl)-1-(3-hydroxy-4,4-dimethyloctyl)hydantoin, reference compound] |  |  |  |  | 24.6 µg/kg |  | 
